Data from ChEMBL document CHEMBL3616392, “Design, synthesis and biological evaluation of novel tetrahydroisoquinoline derivatives as potential PDE4 inhibitors” (Bioorg Med Chem Lett, 2015).

Key:
[1] = biological target: 3',5'-cyclic-AMP phosphodiesterase 4B (Homo sapiens, UniProt Q07343); experiment: Inhibition of PDE4B isolated from human U937 cells using [3H]-cAMP as substrate after 30 mins; type: cell-free, U-937
[2] = biological target: 3',5'-cyclic-AMP phosphodiesterase 4D (Homo sapiens) (UniProt Q08499); experiment: Inhibition of PDE4D isolated from human U937 cells using [3H]-cAMP as substrate at 20 uM after 30 mins; type: cell-free; conditions: U-937
Sequence of 3',5'-cyclic-AMP phosphodiesterase 4D (Homo sapiens) (Q08499 whole entry): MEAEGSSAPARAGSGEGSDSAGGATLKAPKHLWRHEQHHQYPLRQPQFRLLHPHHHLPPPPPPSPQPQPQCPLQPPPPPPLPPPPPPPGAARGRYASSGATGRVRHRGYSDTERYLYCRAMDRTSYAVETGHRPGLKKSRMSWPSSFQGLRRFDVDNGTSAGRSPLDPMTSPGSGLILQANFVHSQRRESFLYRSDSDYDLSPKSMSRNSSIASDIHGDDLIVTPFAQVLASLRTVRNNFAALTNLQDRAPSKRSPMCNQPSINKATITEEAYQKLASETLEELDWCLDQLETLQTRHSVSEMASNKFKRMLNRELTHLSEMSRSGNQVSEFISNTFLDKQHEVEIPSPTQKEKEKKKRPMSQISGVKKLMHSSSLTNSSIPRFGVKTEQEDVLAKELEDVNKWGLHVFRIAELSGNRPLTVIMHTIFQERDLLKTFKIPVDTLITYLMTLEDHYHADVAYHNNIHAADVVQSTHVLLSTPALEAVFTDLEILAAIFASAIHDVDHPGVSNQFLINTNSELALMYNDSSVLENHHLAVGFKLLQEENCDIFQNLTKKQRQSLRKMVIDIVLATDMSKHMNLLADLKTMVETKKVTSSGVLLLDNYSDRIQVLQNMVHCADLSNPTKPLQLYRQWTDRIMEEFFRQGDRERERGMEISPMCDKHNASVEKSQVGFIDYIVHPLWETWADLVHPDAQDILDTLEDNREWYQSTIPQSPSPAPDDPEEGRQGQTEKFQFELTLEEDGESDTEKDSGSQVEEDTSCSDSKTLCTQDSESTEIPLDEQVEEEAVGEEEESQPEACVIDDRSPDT

Sequence of 3',5'-cyclic-AMP phosphodiesterase 4B (Q07343 whole entry): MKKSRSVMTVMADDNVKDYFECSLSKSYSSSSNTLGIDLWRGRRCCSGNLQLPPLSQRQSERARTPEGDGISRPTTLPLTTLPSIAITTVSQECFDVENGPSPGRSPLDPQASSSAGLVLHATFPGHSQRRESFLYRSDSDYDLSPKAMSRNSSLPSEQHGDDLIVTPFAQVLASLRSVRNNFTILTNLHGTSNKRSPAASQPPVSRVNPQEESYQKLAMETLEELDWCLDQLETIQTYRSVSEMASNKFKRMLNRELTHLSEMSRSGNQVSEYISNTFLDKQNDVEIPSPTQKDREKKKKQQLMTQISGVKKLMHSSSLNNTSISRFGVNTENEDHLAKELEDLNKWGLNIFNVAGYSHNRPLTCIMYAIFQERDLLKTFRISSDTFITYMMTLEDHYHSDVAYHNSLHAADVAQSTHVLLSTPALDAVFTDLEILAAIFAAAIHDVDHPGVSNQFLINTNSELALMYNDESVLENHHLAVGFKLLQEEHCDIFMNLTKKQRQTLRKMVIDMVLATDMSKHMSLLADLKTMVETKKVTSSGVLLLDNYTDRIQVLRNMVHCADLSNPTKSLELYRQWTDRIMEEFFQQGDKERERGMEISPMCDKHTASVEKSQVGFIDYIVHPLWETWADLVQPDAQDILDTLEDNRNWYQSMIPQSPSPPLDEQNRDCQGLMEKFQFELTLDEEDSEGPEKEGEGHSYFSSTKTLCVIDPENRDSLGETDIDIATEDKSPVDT

| SMILES | IC50 [1] | inhibition [2] |
| --- | --- | --- |
| COc1cc2c(cc1OC1CCCC1)CN(C(=O)C1=C[C@@H](O)[C@@H](O)[C@H](O)C1)CC2 | > 50 µM | – |
| COc1cc2c(cc1OC1CCCC1)CN(C(=O)c1ccncc1)CC2 | 15.7 µM | 12.1% |
| COc1cc2c(cc1OC1CCCC1)CN(C(=O)c1ccccn1)CC2 | 37.9 µM | – |
| COc1cc2c(cc1OC1CCCC1)CN(C(=O)[C@H]1CC[C@H](N)CC1)CC2 | > 50 µM | – |
| COc1cc(CN2CCc3cc(OC)c(OC4CCCC4)cc3C2)ccc1O | 26.8 µM | – |
| COc1cc(C(=O)N2CCc3cc(OC)c(OC4CCCC4)cc3C2)ccc1O | 2.3 µM | 17.4% |
| COc1cc2c(cc1OC1CCCC1)CN(C(=O)c1ccccc1F)CC2 | 23.3 µM | – |
| COc1cc2c(cc1OC1CCCC1)CN(Cc1ccccc1F)CC2 | 43 µM | – |
| COc1cc2c(cc1OC1CCCC1)CN(Cc1ccncc1)CC2 | 38.1 µM | – |
| COc1cc2c(cc1OC1CCCC1)CN(C(=O)c1ccccc1)CC2 | 23.5 µM | – |
| COc1cc2c(cc1OC1CCCC1)CN(C(=O)c1ccccc1OC)CC2 | 37 µM | – |
| COc1cc2c(cc1OC1CCCC1)CN(C(=O)c1ccccc1Cl)CC2 | 15.5 µM | 15.3% |
